# Values joined by “and” are separate entries in the source; they are usually repeats but may differ in a detail not shown here. Equal values may be shown once. Toxic doses and inconclusive results are not listed. Non-standard residues stand in square brackets, D forms with d. Residues, ends and D or L forms follow the SMILES beside them. ξ: configuration not given here. *: point of attachment. ξL = CC(C)CC(N)C(=O)O; ClAc = O=C(CCl)*
# Test system: CD2F1 mice, L1210 leukemia ip, survival T/C
# Assay: NCI In Vivo Anticancer Drug Screen. Data for tumor model L1210 Leukemia (intraperitoneal) in CD2F1 (CDF1) mice
# Details: higher = longer survival
# How it was run: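 Activity against a transplanted murine tumor was judged by comparing the compound group with a vehicle group. The outcome in the treated animals was divided by that in the controls.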
# [1] = endpoint: mean survival time, dose: 2.5 mg/kg/injection, schedule: Q01DX009 (ip), vehicle: saline
# [2] = endpoint: mean survival time, dose: 5.0 mg/kg/injection, schedule: Q01DX009 (ip), vehicle: saline
# [3] = endpoint: mean survival time, dose: 50.0 mg/kg/injection, schedule: Q04DX003 (ip), vehicle: saline with Tween-80
# [4] = endpoint: mean survival time, dose: 100.0 mg/kg/injection, schedule: Q01DX001 (ip), vehicle: saline with Tween-80
# [5] = endpoint: mean survival time, dose: 100.0 mg/kg/injection, schedule: Q04DX003 (ip), vehicle: saline with Tween-80
# [6] = endpoint: mean survival time, dose: 200.0 mg/kg/injection, schedule: Q04DX003 (ip), vehicle: saline with Tween-80
# [7] = endpoint: mean survival time, dose: 400.0 mg/kg/injection, schedule: Q04DX003 (ip), vehicle: saline with Tween-80
# [8] = endpoint: mean survival time, dose: 100.0 mg/kg/injection, schedule: Q01DX009 (ip), vehicle: saline with Tween-80
# [9] = endpoint: mean survival time, dose: 200.0 mg/kg/injection, schedule: Q01DX009 (ip), vehicle: saline with Tween-80
# [10] = endpoint: mean survival time, dose: 400.0 mg/kg/injection, schedule: Q01DX009 (ip), vehicle: saline with Tween-80
# [11] = endpoint: mean survival time, dose: 25.0 mg/kg/injection, schedule: Q01DX009 (ip), vehicle: saline with Tween-80
# [12] = endpoint: mean survival time, dose: 50.0 mg/kg/injection, schedule: Q01DX009 (ip), vehicle: saline with Tween-80
smiles,measurement,setting,value
Cc1c2ccccc2cc2cccc[n+]12,T/C,[1],95 % of control and 100 % of control
same,T/C,[2],95 % of control and 101 % of control
same,T/C,"endpoint: mean survival time, dose: 10.0 mg/kg/injection, schedule: Q01DX009 (ip), vehicle: saline",102 % of control and 110 % of control
same,T/C,"endpoint: mean survival time, dose: 20.0 mg/kg/injection, schedule: Q01DX009 (ip), vehicle: saline",97 % of control and 106 % of control
CCOC(=O)CCC(NC(=O)c1ccc(NCc2cnc3nc(N)nc(N)c3c2)cc1)C(=O)OCC (stereo unspecified),T/C,"endpoint: median survival time, dose: 1.0 mg/kg/injection, schedule: Q01DX005 (ip), vehicle: saline with Tween-80",153 % of control
same,T/C,"endpoint: median survival time, dose: 2.0 mg/kg/injection, schedule: Q01DX005 (ip), vehicle: saline with Tween-80",174 % of control
Nc1ccc2ccc(N)cc2c1,T/C,"endpoint: median survival time, dose: 25.0 mg/kg/injection, schedule: Q01DX009 (ip), vehicle: saline with Tween-80",98 % of control
same,T/C,"endpoint: median survival time, dose: 50.0 mg/kg/injection, schedule: Q01DX009 (ip), vehicle: saline with Tween-80",100 % of control
same,T/C,"endpoint: median survival time, dose: 100.0 mg/kg/injection, schedule: Q01DX009 (ip), vehicle: saline with Tween-80",100 % of control
same,T/C,"endpoint: median survival time, dose: 200.0 mg/kg/injection, schedule: Q01DX009 (ip), vehicle: saline with Tween-80",105 % of control
NC(=S)Nc1ccccc1[N+](=O)[O-],T/C,[3],103 % of control and 104 % of control
same,T/C,[4],101 % of control
same,T/C,"endpoint: mean survival time, dose: 100.0 mg/kg/injection, schedule: Q04DX002 (ip), vehicle: saline with Tween-80",95 % of control
same,T/C,[5],97 % of control and 101 % of control
same,T/C,"endpoint: mean survival time, dose: 200.0 mg/kg/injection, schedule: Q01DX001 (ip), vehicle: saline with Tween-80",102 % of control
same,T/C,"endpoint: mean survival time, dose: 200.0 mg/kg/injection, schedule: Q04DX002 (ip), vehicle: saline with Tween-80",93 % of control
same,T/C,[6],97 % of control and 111 % of control
C=C1C(=O)OC2C1C(OC(=O)/C(=C/C)COC(C)=O)CC1(CO1)C1C(OC(=O)/C(=C/C)CO)C=C(C)C21 (stereo unspecified),T/C,[4],88 % of control
same,T/C,"endpoint: mean survival time, dose: 400.0 mg/kg/injection, schedule: Q01DX001 (ip), vehicle: saline with Tween-80",93 % of control
C=CCC1(C(=O)OCC)CCCCC1=O (stereo unspecified),T/C,[5],103 % of control
same,T/C,[6],106 % of control
same,T/C,[7],110 % of control
Cc1ccc(C(C)C)c(OCC[N+]2(CCOc3cc(C)ccc3C(C)C)CC=CC2)c1,T/C,"endpoint: mean survival time, dose: 6.25 mg/kg/injection, schedule: Q04DX002 (ip), vehicle: saline with Tween-80",100 % of control
same,T/C,"endpoint: mean survival time, dose: 12.5 mg/kg/injection, schedule: Q04DX002 (ip), vehicle: saline with Tween-80",94 % of control
same,T/C,"endpoint: mean survival time, dose: 25.0 mg/kg/injection, schedule: Q04DX002 (ip), vehicle: saline with Tween-80",100 % of control
O=C1CC2C=CCC12 (stereo unspecified),T/C,[8],98 % of control
same,T/C,[9],98 % of control
same,T/C,[10],100 % of control
CC(C)CC(NC(=O)CCl)C(=O)NCC(=O)O (stereo unspecified) (ClAc-[ξL]-Gly-OH),T/C,[11],96 % of control
same,T/C,[12],96 % of control
same,T/C,[8],94 % of control
CC[P+](C)(CC)c1cccc(OC(=O)NC)c1,T/C,"endpoint: mean survival time, dose: 0.05 mg/kg/injection, schedule: Q01DX001 (ip), vehicle: saline",96 % of control
same,T/C,"endpoint: mean survival time, dose: 0.1 mg/kg/injection, schedule: Q01DX001 (ip), vehicle: saline",102 % of control
same,T/C,"endpoint: mean survival time, dose: 0.2 mg/kg/injection, schedule: Q01DX001 (ip), vehicle: saline",104 % of control
C/C=C(\C)c1cc(=O)c2c(C)cc3c(c2o1)C(=O)c1c(O)c(C2CC(C)(N(C)C)C(OC(C)=O)C(C)O2)cc(C2CC(N(C)C)C(O)C(C)O2)c1C3=O (stereo unspecified),T/C,"endpoint: mean survival time, dose: 0.15 mg/kg/injection, schedule: Q01DX009 (ip), vehicle: saline",103 % of control
same,T/C,"endpoint: mean survival time, dose: 0.31 mg/kg/injection, schedule: Q01DX009 (ip), vehicle: saline",98 % of control
same,T/C,"endpoint: mean survival time, dose: 0.62 mg/kg/injection, schedule: Q01DX009 (ip), vehicle: saline",115 % of control and 100 % of control
same,T/C,"endpoint: mean survival time, dose: 1.25 mg/kg/injection, schedule: Q01DX009 (ip), vehicle: saline",106 % of control and 111 % of control
same,T/C,[1],105 % of control and 108 % of control
same,T/C,[2],115 % of control
C=CN1C(=O)NC2(CCCCC2)C1=O,T/C,[11],96 % of control
same,T/C,"endpoint: mean survival time, dose: 25.0 mg/kg/injection, schedule: Q04DX003 (ip), vehicle: saline with Tween-80",92 % of control
same,T/C,[12],96 % of control
same,T/C,[3],97 % of control
same,T/C,[5],95 % of control
CC(Cl)CN(CC(C)Cl)c1ccc2c(c1)Cc1cc(F)ccc1-2 (stereo unspecified),T/C,[5],98 % of control
same,T/C,[6],96 % of control
same,T/C,[7],100 % of control
CN(C)P(=O)(Oc1ccccc1)N(C)C,T/C,"endpoint: mean survival time, dose: 12.5 mg/kg/injection, schedule: Q01DX009 (ip), vehicle: saline with Tween-80",98 % of control and 100 % of control
same,T/C,[11],95 % of control and 101 % of control
same,T/C,[12],89 % of control and 96 % of control
same,T/C,[8],94 % of control and 101 % of control
same,T/C,[9],95 % of control and 96 % of control
same,T/C,[10],93 % of control and 96 % of control
O=C(NO)c1cc(O)c(O)c(O)c1,T/C,"endpoint: mean survival time, dose: 100.0 mg/kg/injection, schedule: Q01DX009 (ip), vehicle: water",117 % of control
same,T/C,"endpoint: mean survival time, dose: 200.0 mg/kg/injection, schedule: Q01DX009 (ip), vehicle: distilled water + Tween-80",154 % of control
same,T/C,"endpoint: mean survival time, dose: 200.0 mg/kg/injection, schedule: Q01DX009 (ip), vehicle: water",156 % of control
same,T/C,"endpoint: mean survival time, dose: 400.0 mg/kg/injection, schedule: Q01DX009 (ip), vehicle: distilled water + Tween-80",104 % of control
same,T/C,"endpoint: mean survival time, dose: 400.0 mg/kg/injection, schedule: Q01DX009 (ip), vehicle: water",100 % of control
same,T/C,"endpoint: mean survival time, dose: 800.0 mg/kg/injection, schedule: Q01DX009 (ip), vehicle: distilled water + Tween-80",116 % of control
same,T/C,"endpoint: median survival time, dose: 25.0 mg/kg/injection, schedule: Q01DX009 (ip), vehicle: distilled water + Tween-80",107 % of control
same,T/C,"endpoint: median survival time, dose: 50.0 mg/kg/injection, schedule: Q01DX009 (ip), vehicle: distilled water + Tween-80",120 % of control
same,T/C,"endpoint: median survival time, dose: 200.0 mg/kg/injection, schedule: Q01DX009 (ip), vehicle: distilled water + Tween-80",158 % of control and 162 % of control
same,T/C,"endpoint: median survival time, dose: 400.0 mg/kg/injection, schedule: Q01DX009 (ip), vehicle: distilled water + Tween-80",90 % of control
Cc1[se]c2ccccc2[n+]1C,T/C,"endpoint: mean survival time, dose: 75.0 mg/kg/injection, schedule: Q01DX001 (ip), vehicle: saline",98 % of control
same,T/C,"endpoint: mean survival time, dose: 150.0 mg/kg/injection, schedule: Q01DX001 (ip), vehicle: saline",107 % of control
Cn1c(CC(O)(C(F)(F)F)C(F)(F)F)c(C(O)(C(F)(F)F)C(F)(F)F)c2ccccc21,T/C,"endpoint: mean survival time, dose: 5.0 mg/kg/injection, schedule: Q04DX003 (ip), vehicle: saline with Tween-80",101 % of control
same,T/C,"endpoint: mean survival time, dose: 10.0 mg/kg/injection, schedule: Q04DX003 (ip), vehicle: saline with Tween-80",90 % of control
same,T/C,"endpoint: mean survival time, dose: 20.0 mg/kg/injection, schedule: Q04DX003 (ip), vehicle: saline with Tween-80",90 % of control
CC(=O)/C=C/Sc1n[nH]c(=O)[nH]c1=O,T/C,"endpoint: mean survival time, dose: 12.5 mg/kg/injection, schedule: Q01DX005 (ip), vehicle: distilled water + Tween-80",106 % of control
same,T/C,"endpoint: mean survival time, dose: 25.0 mg/kg/injection, schedule: Q01DX005 (ip), vehicle: distilled water + Tween-80",101 % of control
same,T/C,"endpoint: mean survival time, dose: 50.0 mg/kg/injection, schedule: Q01DX005 (ip), vehicle: distilled water + Tween-80",107 % of control
same,T/C,"endpoint: mean survival time, dose: 100.0 mg/kg/injection, schedule: Q01DX005 (ip), vehicle: distilled water + Tween-80",98 % of control
CC(C)C(=O)OCCOc1ccccc1,T/C,[8],100 % of control
same,T/C,[9],100 % of control
same,T/C,[10],98 % of control

# Reference: PubChem BioAssay AID256 (DTP/NCI, 2004)
